Results taken from article PMC4657727 (Biochemistry, 2013).

What was measured:
[1] = biological target: T1, A3+B3 (heteromeric CNGA3 + CNGB3) channels (Homo sapiens, UniProt Q16281+Q9NQW8); test: inside-out patch clamp, macroscopic current dose-response, Hill fit; format: cell-based
T1 sequence (Q16281 1-694): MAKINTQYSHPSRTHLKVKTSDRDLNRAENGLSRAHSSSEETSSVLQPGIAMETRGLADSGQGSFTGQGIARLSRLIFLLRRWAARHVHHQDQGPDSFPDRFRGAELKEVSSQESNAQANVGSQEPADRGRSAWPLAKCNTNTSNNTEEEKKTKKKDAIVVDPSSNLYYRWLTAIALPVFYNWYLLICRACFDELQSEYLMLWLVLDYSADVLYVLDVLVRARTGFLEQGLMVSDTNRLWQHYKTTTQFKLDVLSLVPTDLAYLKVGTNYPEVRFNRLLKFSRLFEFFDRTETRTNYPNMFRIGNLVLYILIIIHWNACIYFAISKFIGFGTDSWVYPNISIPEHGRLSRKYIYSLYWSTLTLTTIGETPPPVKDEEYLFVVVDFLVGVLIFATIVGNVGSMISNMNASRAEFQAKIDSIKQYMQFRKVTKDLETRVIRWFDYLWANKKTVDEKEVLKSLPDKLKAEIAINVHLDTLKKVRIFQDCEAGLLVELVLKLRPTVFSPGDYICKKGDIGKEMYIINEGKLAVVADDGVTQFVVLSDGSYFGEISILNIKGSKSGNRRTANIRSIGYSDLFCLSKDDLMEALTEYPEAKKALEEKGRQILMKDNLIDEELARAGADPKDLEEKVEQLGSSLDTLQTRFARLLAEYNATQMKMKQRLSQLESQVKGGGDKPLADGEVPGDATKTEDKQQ
T1 sequence (Q9NQW8 1-809): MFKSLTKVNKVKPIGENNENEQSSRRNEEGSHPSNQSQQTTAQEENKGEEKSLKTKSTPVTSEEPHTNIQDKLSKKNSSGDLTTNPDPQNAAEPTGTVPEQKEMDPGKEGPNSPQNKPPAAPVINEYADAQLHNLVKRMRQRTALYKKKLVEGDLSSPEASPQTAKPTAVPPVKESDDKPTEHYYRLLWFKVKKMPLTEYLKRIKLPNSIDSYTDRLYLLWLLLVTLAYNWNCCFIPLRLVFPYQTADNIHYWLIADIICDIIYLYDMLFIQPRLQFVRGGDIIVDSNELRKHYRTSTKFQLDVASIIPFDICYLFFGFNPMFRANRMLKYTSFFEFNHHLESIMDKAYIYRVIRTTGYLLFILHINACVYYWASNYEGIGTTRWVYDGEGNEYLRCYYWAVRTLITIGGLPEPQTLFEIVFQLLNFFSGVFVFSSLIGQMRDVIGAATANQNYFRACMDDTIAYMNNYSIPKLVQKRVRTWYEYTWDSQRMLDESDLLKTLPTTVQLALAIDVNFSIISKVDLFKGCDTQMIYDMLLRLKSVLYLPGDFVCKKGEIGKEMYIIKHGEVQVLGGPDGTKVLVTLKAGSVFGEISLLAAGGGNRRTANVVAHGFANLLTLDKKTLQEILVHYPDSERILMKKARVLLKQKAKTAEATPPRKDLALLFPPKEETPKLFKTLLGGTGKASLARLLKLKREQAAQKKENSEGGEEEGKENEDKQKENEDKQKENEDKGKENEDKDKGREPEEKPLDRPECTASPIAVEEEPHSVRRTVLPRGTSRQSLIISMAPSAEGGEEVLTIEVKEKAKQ

[2] = biological target: T2, A3 (homomeric CNGA3) channels (Homo sapiens, UniProt Q16281); test: as above; format: cell-based
T2 sequence (Q16281 1-694): T1 sequence (Q16281 1-694)

[3] = anti-FLAG immunoblot, intact oocytes exposed to MMPs 1 h; settings: glycan lost; control: glycosylated form of A3wt subunits

`Nc1nc2c(ncn2[C@@H]2O[C@@H]3COP(=O)(O)O[C@H]3[C@H]2O)c(=O)[nH]1` [cGMP] gave an EC50 [1] of 15.2 ± 1.1 µM and an EC50 [2] of 5.6 ± 1 µM.

B1: CNGA3: A3N339Q (protein)
parent chain: T1 sequence (Q16281 1-694)
With B1 the “other: proteolytic processing” value [3] was “increases”.
